Source: US9518061B2, “Substituted pyrazolylpyrazole derivative and use of same as herbicide” (KYOYU AGRI CO., LTD., priority 2013, dated 2016)

Assays:
Type in all cases: in vivo
Echinochloa crus-galli = experiment: Paddy herbicidal activity test; conditions: irrigated paddy pot, treated at 3.5 leaf stage of Echinochloa crus-galli, 30 days
Method: (§1) 1. Paddy Herbicidal Activity Test
(§2) Rice paddy soil was filled into a 1/10000 are pot followed by the addition of suitable amounts of water and chemical fertilizer, kneading, seeding with Echinochloa crus-galli, Monochoria vaginalis and Scirpus juncoides and maintaining in an irrigated state at a water depth of 3 cm.
(§3) Wettable powder of Target Compound (I) shown in Table 1 prepared in compliance with the preparation examples were diluted with a suitable amount of water, rice plants in the 2.0 leaf stage were transplanted during 3.5 leaf stage of Echinochloa crus-galli, and treated by dropping in chemical in the prescribed amount per are using a pipette.
(§4) After treating for 30 days in a glass greenhouse at an average atmospheric temperature of 30° C., the herbicidal efficacy thereof was investigated.
(§5) Evaluation of herbicidal efficacy was carried out by comparing growth inhibition rate (%) with an untreated group, while evaluation of phytotoxicity was carried out by comparing growth inhibition rate (%) with the state of a complete eradication group, and were evaluated at 11 levels indicated below.

Monochoria vaginalis = experiment: Paddy herbicidal activity test; conditions: irrigated paddy pot, 30 days
Method: as §1, §2, §3, §4, §5

Scirpus juncoides = experiment: Paddy herbicidal activity test; conditions: irrigated paddy pot, 30 days
Method: as §1, §2, §3, §4, §5

Rice plants = experiment: Paddy herbicidal activity test, phytotoxicity to transplanted rice; conditions: rice transplanted in 2.0 leaf stage, 30 days
Method: as §1, §2, §3, §4, §5

SMILES | herbicidal efficacy (growth inhibition rate level) Echinochloa crus-galli (Echinochloa crus-galli; 1g a.i./10a) | herbicidal efficacy (growth inhibition rate level) Echinochloa crus-galli (Echinochloa crus-galli; 5g a.i./10a) | herbicidal efficacy (growth inhibition rate level) Monochoria vaginalis (Monochoria vaginalis; 1g a.i./10a) | herbicidal efficacy (growth inhibition rate level) Monochoria vaginalis (Monochoria vaginalis; 5g a.i./10a) | herbicidal efficacy (growth inhibition rate level) Scirpus juncoides (Scirpus juncoides; 1g a.i./10a) | herbicidal efficacy (growth inhibition rate level) Scirpus juncoides (Scirpus juncoides; 5g a.i./10a) | phytotoxicity (growth inhibition rate level) Rice plants (Rice plants; 1g a.i./10a) | phytotoxicity (growth inhibition rate level) Rice plants (Rice plants; 5g a.i./10a)
N#Cc1cnn(-c2nn3c(c2Cl)CCCC3)c1N(CCCCl)C(=O)C(F)(F)F [Compound 3] | 8 (80% to less than 90%) | 9 (90% to less than 100%) | 7 (70% to less than 80%) | 8 (80% to less than 90%) | 8 (80% to less than 90%) | 8 (80% to less than 90%) | 1 (10% to less than 20%) | 1 (10% to less than 20%)
N#Cc1cnn(-c2nn3c(c2Cl)CCCC3)c1N(CCC(F)(F)F)C(=O)C(F)(F)F [Compound 4] | 9 (90% to less than 100%) | 10 (100%) | 8 (80% to less than 90%) | 8 (80% to less than 90%) | 9 (90% to less than 100%) | 9 (90% to less than 100%) | 0 (0 (exponent): 0% to less than 10% (growth inhibition rate)) | 0 (0 (exponent): 0% to less than 10% (growth inhibition rate))
CCOCCN(C(=O)C(F)(F)F)c1c(C#N)cnn1-c1nn2c(c1Cl)CCCC2 [Compound 5] | 9 (90% to less than 100%) | 9 (90% to less than 100%) | 8 (80% to less than 90%) | 8 (80% to less than 90%) | 8 (80% to less than 90%) | 9 (90% to less than 100%) | 0 (0 (exponent): 0% to less than 10% (growth inhibition rate)) | 1 (10% to less than 20%)
COCCCN(C(=O)C(F)(F)F)c1c(C#N)cnn1-c1nn2c(c1Cl)CCCC2 [Compound 6] | 9 (90% to less than 100%) | 10 (100%) | 8 (80% to less than 90%) | 9 (90% to less than 100%) | 7 (70% to less than 80%) | 8 (80% to less than 90%) | 0 (0 (exponent): 0% to less than 10% (growth inhibition rate)) | 0 (0 (exponent): 0% to less than 10% (growth inhibition rate))
N#Cc1cnn(-c2nn3c(c2Cl)CCCC3)c1N(CCC(F)(F)F)C(=O)C(F)(F)C(F)(F)F [Compound 7] | 9 (90% to less than 100%) | 9 (90% to less than 100%) | 7 (70% to less than 80%) | 9 (90% to less than 100%) | 8 (80% to less than 90%) | 8 (80% to less than 90%) | 0 (0 (exponent): 0% to less than 10% (growth inhibition rate)) | 0 (0 (exponent): 0% to less than 10% (growth inhibition rate))
N#Cc1cnn(-c2nn3c(c2Cl)CCCC3)c1N(CC(F)(F)F)C(=O)C(F)(F)F [Compound 8] | 8 (80% to less than 90%) | 9 (90% to less than 100%) | 9 (90% to less than 100%) | 9 (90% to less than 100%) | 9 (90% to less than 100%) | 10 (100%) | 0 (0 (exponent): 0% to less than 10% (growth inhibition rate)) | 0 (0 (exponent): 0% to less than 10% (growth inhibition rate))
COCCN(C(=O)C(F)(F)F)c1c(C#N)cnn1-c1nn2c(c1Br)CCCC2 [Compound 13] | 9 (90% to less than 100%) | 9 (90% to less than 100%) | 8 (80% to less than 90%) | 9 (90% to less than 100%) | 7 (70% to less than 80%) | 8 (80% to less than 90%) | 0 (0 (exponent): 0% to less than 10% (growth inhibition rate)) | 1 (10% to less than 20%)
CCOCCN(C(=O)C(F)(F)F)c1c(C#N)cnn1-c1nn2c(c1Br)CCCC2 [Compound 14] | 9 (90% to less than 100%) | 9 (90% to less than 100%) | 7 (70% to less than 80%) | 8 (80% to less than 90%) | 8 (80% to less than 90%) | 9 (90% to less than 100%) | 1 (10% to less than 20%) | 1 (10% to less than 20%)
COCCCN(C(=O)C(F)(F)F)c1c(C#N)cnn1-c1nn2c(c1Br)CCCC2 [Compound 15] | 9 (90% to less than 100%) | 10 (100%) | 8 (80% to less than 90%) | 8 (80% to less than 90%) | 8 (80% to less than 90%) | 9 (90% to less than 100%) | 0 (0 (exponent): 0% to less than 10% (growth inhibition rate)) | 1 (10% to less than 20%)
N#Cc1cnn(-c2nn3c(c2Br)CCCC3)c1N(CCCCl)C(=O)C(F)(F)F [Compound 17] | 8 (80% to less than 90%) | 8 (80% to less than 90%) | 9 (90% to less than 100%) | 9 (90% to less than 100%) | 7 (70% to less than 80%) | 8 (80% to less than 90%) | 0 (0 (exponent): 0% to less than 10% (growth inhibition rate)) | 0 (0 (exponent): 0% to less than 10% (growth inhibition rate))
N#Cc1cnn(-c2nn3c(c2Br)CCCC3)c1N(CCC(F)(F)F)C(=O)C(F)(F)F [Compound 18] | 9 (90% to less than 100%) | 10 (100%) | 7 (70% to less than 80%) | 8 (80% to less than 90%) | 9 (90% to less than 100%) | 9 (90% to less than 100%) | 0 (0 (exponent): 0% to less than 10% (growth inhibition rate)) | 1 (10% to less than 20%)
COCCN(C(=O)C(F)(F)F)c1c([N+](=O)[O-])cnn1-c1nn2c(c1Br)CCCC2 [Compound 23] | 7 (70% to less than 80%) | 8 (80% to less than 90%) | 8 (80% to less than 90%) | 8 (80% to less than 90%) | 8 (80% to less than 90%) | 8 (80% to less than 90%) | 0 (0 (exponent): 0% to less than 10% (growth inhibition rate)) | 0 (0 (exponent): 0% to less than 10% (growth inhibition rate))
